Reference: patent US20250251402A1, “METHODS OF DETECTING MOLECULAR AGGREGATES USING IMAGE CORRELATION SPECTROSCOPY (ICS)” (The General Hospital Corporation, priority 2022, published 2025)
Entries after “also recorded” stand apart in the source; their conditions may differ.

How the values were obtained:
[1] = tested on: HT1080 cells; experiment: Dose response cell viability (Presto Blue) in HT1080 cells; type: cell-based; conditions: HT1080, 100 nM PDD00017273
Method: Cells were plated in a 96-well plate at 2×10^3 cells per well and treated with drug for 5 days in three replicate wells. Cell viability was then determined using Presto Blue (Thermo Fisher). Signal was averaged over 3 replicate wells and normalized to blank (no cells) as well as to the levels of untreated wells. A sigmoidal response curve was fit to the average of two experiments in Prism. PARPi z score was calculated for each PARPi using 9 cell lines. The average z score over three PARPi (veliparib, olaparib, talazoparib) was then determined as a representation of cell line PARPi sensitivity.

[2] = tested on: HT1080 cells; experiment: γH2AX immunofluorescence ICS DA and nuclear intensity in HT1080 cells; type: cell-based
Method: (§1) Cells were plated in 8-well […] slides (Thermo or Ibidi) to achieve 50% confluence overnight. Cells were then treated and fixed with 4% paraformaldehyde in PBS at room temperature for 10 minutes. Antibody staining was performed according to the manufacturers protocol. Following fluorescent secondary antibody labeling, prolong gold with DAPI (Cell Signaling Technologies) was added and samples were stored for up to 1 week prior to imaging.
ICS analysis was performed in MATLAB as previously described (41). Briefly, nuclei were segmented from the DAPI channel with the MATLAB function, imbinarize, converting the greyscale image to a binary dependent on an automatically defined threshold. The MATLAB function, regionprops, was used to identify single nuclei as objects. Each nucleus was used as a mask to perform ICS analysis on the antibody-stained channel, within size limitations for a nucleus (objects >400 and <3000 pixels). To ensure the analysis of antibody stained nuclei, nuclei under an average intensity of 200 au after background subtraction were excluded. The spatial autocorrelation functions were calculated using Fourier methods, then fit to a 2D Gaussian using a nonlinear least-squares algorithm (41). Using the outputs of the fitting, the mean number of independent emitting fluorescent entities per focal spot area and subsequently the DA were determined (59). DA measurements across experiments were normalized by the control in each dataset. […] Any DA values exceeding 3 standard deviations from the mean were defined as incorrectly segmented and removed. Data were plotted in Prism and analysis performed in Prism or Excel.

[3] = tested on: OVCA429 cells; experiment: γH2AX immunofluorescence in OVCA429 cells (intensity, Imaris Spots, ICS TNoP and DA); type: cell-based
Source text: (§2) For the ICS analysis, nuclei were segmented from the DAPI channel using a watershed approach in MATLAB. Briefly, we applied a difference of gaussians for size-based feature extraction of nuclei in the image (upper gaussian σ=100, lower gaussian σ=2-5 dependent on cell size). This feature enhanced image was then binarized to create a primary mask (using the function imbinarize) and connected components under 100 pixels were removed (using the function bwareaopen). We then created a distance transform of the resulting binary image (using the function bwdist). Seed points were determined by finding the regional maximum of a gaussian filtered image, with a gaussian σ of appropriate size for seed point detection (σ×7 or 8 dependent on cell size). The seed points were applied to the distance transform, and we applied the watershed function to the resulting image to obtain masks for each nucleus (extracted using the function regionprops).
(§3) Using the nucleus masks, we performed ICS analysis on the antibody-stained channel, within size limitations for a nucleus (objects >400 and <2400 pixels). Intensity, DA and TNOP were calculated for each cell. In this analysis, since the ROI is defined by the nucleus mask (segmented from nuclear signal using DAPI staining), TNoP represents the total number of particles per nucleus, with the image area being the number of pixels in each nuclear mask.
(§4) Measurements across experiments were normalized by the control in each dataset. […] Data were plotted in Prism and statistical analysis was performed in Excel.
(§5) Imaris spots analysis were performed with Imaris 9.8 with background subtraction, using a spot size of 1 μm that was measured from the smallest distinguishable foci from the control image. For images with multiple nuclei, ImarisCell was used with the detection type “cell and vesicles”, where the nucleus in the DAPI channel was modelled as the “cell” and antibody-labeled foci were modelled as the “vesicles”. This enabled us to count the number of foci per nucleus for multiple cells. In each dataset, the automatic “quality” threshold was determined from the control image and the same threshold was used for every image in the dataset to be able to compare the outputs across datasets. Similar to the ICS analysis, only cells with an area between 400-2400 voxels were included for analysis.
(§6) All chemicals were purchased from Sigma unless otherwise noted. All drugs were purchased from Selleck Chemicals. Cells were cultured in media supplemented with 10% fetal bovine serum and 1% penicillin/streptomycin. OVCA429 were originally obtained from Dr. Michael Birrer and cultured in DMEM. SKOV3 was obtained from ATCC and cultured in RPMI. For MMS treatment, cells were incubated for 6 hours before fixation with 4% formaldehyde, whereas for treatment with PARP inhibitors, cells were incubated for 24 hours before fixation.
(§7) Cells were plated in 8-well slides (Fisher) to achieve 50% confluence overnight. Cells were then treated and fixed with 4% formaldehyde in PBS at room temperature for 10 minutes. Antibody staining was performed according to the manufacturers protocol (Cell Signaling Technologies or Abcam). Primary antibodies used were γH2AX (CST, #2577), RPA1 (CST, #2267) and RAD51 (Abcam, 63801), with Anti-rabbit IgG Fab2 Alexa Fluor 647 (CST, #4414) as the secondary fluorescent antibody. After antibody labeling, prolong gold with DAPI (CST) was added and samples were stored for up to 1 week prior to imaging. Confocal imaging was performed on an Olympus FV1000 multiphoton/confocal microscope using an Olympus XLUMPlanFL N 20× objective, NA 1.00 with chromatic correction, and 3× digital zoom. DAPI was excited with a 405 nm laser, while Alexa Fluor 647 was excited with a 635 nm laser. A multiband (DM 405/488/561/633 nm) dichroic mirror was used to direct the excitation laser and collect emission. […]

[4] = biological target: T1, PARP1 (Homo sapiens, UniProt P09874); conditions: actual rate multiplied by 10^−7 for the stochastic model
T1 sequence (P09874 whole entry, species assumed): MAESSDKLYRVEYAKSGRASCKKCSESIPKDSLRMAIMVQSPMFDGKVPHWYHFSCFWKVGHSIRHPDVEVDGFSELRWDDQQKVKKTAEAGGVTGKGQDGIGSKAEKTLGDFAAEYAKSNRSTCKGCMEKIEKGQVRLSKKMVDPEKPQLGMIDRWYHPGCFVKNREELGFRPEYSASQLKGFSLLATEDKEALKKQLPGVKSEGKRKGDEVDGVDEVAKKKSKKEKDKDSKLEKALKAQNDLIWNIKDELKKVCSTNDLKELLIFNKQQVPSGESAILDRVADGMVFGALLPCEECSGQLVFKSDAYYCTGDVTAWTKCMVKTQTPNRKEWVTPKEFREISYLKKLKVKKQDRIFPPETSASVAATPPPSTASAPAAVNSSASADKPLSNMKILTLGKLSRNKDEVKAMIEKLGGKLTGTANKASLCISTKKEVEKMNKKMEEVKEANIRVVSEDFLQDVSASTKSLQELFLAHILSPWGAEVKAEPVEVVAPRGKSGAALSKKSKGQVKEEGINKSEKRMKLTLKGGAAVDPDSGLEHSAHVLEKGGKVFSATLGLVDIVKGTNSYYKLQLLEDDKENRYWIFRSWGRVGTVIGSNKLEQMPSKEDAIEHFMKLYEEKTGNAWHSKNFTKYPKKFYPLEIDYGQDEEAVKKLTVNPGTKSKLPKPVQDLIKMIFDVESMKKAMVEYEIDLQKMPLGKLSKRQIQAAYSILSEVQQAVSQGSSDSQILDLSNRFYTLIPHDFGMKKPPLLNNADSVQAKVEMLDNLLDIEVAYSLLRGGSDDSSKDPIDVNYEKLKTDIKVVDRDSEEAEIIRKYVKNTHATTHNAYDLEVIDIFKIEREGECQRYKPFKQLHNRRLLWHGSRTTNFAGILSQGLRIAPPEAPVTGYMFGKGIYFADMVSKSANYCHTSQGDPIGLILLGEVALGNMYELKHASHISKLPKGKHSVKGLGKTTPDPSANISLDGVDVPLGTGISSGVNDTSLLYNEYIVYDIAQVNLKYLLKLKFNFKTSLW
Source text: ka (trap): The association constant of PARPi for PARP1. […] Values were taken as an average of previous measurements. […] Values were taken as an average of previous measurements. […] Values were taken as an average of previous measurements.
Association of PARPi to PARP1 (p.ka_trap): The association constant of each PARPi on PARP1. […] Rates were corrected to account for the interpretation of PARP1 concentration relative to DNA through multiplying the actual rate by 10^−7. This rate correction was performed for all association constants.

[5] = biological target: T1, PARP1; experiment: PARP1 trapping by chromatin fractionation in HT1080 cells; type: cell-based; conditions: HT1080, 100 μM veliparib vs 1 μM talazoparib
Method: Lysate was then pelleted by centrifugation at 14,000 g for 15 min at 4° C. Supernatant was transferred to a clean tube and total protein was determined using a BCA assay (Pierce). Protein was loaded into a NuPAGE gel (Thermo Fisher) and transferred to nitrocellulose paper (Thermo Fisher). Blocking and antibody labeling was then carried out according to the antibody manufacturer's protocol. For PAR measurements, cells were treated with TMZ for 1 hour, or 1 μM H2O2 for 10 minutes in 6-well plates. Cells were trypsinized and washed once with PBS prior to cell lysis. Western blot expression levels were quantified by inverting the red channel of an image of the blot in FIJI, subtracting the background intensity and measuring the total intensity of the lane. These values where then normalized to the control signal. […] The media was removed, and cells were scraped off the culture dish in 1 ml PBS. The cells were pelleted by centrifugation at 500 g for 4 minutes at 4° C. and the solution was removed. Pellets were resuspended in 250 μl lysis buffer (10 mM HEPES, 10 mM KCl, 1.5 mM MgCl2, 340 mM sucrose, 10% glycerol, 0.1% Triton X-100, pH 7.9, protease inhibitors (Thermo Fisher)) and incubated on ice for 10 minutes. Nuclei were separated by centrifugation at 1300 g for 5 minutes at 4° C. and the solution was collected (cytoplasm fraction). […]

[6] = biological target: PARP1-DNA (Homo sapiens, UniProt P09874); conditions: from previous findings; cited from earlier work
Sequence of PARP1-DNA (P09874 whole entry): as the sequence (P09874 whole entry, species assumed) above

[7] = biological target: PARP (Homo sapiens, UniProt P09874); conditions: HT1080, 1 μM PARPi, 500 nM fluorescent olaparib
Sequence of PARP (P09874 2-1014): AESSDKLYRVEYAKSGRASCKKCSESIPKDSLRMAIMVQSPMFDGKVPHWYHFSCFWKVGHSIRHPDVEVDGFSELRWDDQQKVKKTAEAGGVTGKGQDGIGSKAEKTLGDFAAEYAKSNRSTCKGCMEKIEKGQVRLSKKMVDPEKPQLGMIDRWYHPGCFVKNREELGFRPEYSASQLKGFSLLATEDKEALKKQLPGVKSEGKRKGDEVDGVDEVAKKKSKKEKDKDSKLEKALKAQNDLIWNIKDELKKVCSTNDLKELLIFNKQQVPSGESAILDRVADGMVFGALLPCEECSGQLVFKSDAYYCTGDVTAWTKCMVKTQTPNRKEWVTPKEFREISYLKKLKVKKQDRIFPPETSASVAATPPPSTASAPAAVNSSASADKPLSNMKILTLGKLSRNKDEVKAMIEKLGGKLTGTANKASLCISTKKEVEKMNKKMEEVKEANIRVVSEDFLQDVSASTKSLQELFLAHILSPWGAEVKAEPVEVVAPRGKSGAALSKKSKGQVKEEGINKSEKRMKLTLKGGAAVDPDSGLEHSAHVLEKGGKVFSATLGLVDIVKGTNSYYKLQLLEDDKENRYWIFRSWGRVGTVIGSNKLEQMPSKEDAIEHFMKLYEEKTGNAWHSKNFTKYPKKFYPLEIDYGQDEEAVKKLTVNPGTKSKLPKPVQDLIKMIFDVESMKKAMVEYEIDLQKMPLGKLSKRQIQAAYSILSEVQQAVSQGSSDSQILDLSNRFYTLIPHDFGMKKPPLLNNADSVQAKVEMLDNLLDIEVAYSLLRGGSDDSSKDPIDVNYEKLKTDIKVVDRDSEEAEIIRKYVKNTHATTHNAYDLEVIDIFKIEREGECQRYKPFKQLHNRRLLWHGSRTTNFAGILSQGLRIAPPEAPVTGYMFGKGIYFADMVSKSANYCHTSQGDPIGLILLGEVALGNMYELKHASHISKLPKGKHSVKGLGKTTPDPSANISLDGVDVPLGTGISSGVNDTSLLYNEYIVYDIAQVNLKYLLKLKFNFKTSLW
Method: Cells were grown on 25 mm round, uncoated, sterilized glass coverslips in 6-well plates for 24 hours. […] Coverslips were removed from the 6-well plates, mounted onto a perfusion chamber (Warner Instruments), sealed with vacuum grease and perfused with a custom tubing setup. The chamber was then mounted onto the microscope and temperature was maintained at 37° C. using a heating pad and feedback loop. Cells were initially located using fluorescent drug or autofluorescence and allowed to temperature equilibrate on the microscope stage for at least 5 minutes. Images were acquired using the anisotropy configuration as described above. After initial images were acquired, the chamber was perfused with 10× volume of the wash media containing fluorescent drug while chamber media and excess wash media were aspirated out of the chamber with vacuum. Images were then acquired at the desired time points while correcting for any drift. Association of fluorescent drug measurements were performed through rapid addition of media containing fluorescent drug (500 nM) and immediate image acquisition.
Nuclei were segmented in MATLAB and the average nuclear intensity and anisotropy were calculated using the regionprops function. […] Values were then plotted as a function of time, with t=0 when PARPi was removed, in Prism (Graphpad) and a one phase association curve was fit to obtain the binding rate. […]

[8] = tested on: HCC1937 cells; experiment: 53BP1-mApple condensate anisotropy (homo-FRET) and intensity in HCC1937 cells; type: cell-based; conditions: HCC1937, 1 μM PARPi and 100 μM TMZ for 1 hour
Method: (§8) All fluorescence imaging was performed on an Olympus FV1000 multiphoton/confocal microscope. Anisotropy measurements were performed through custom modifications to the imaging system as previously described (30). Briefly, linear polarization of two photon excitation light at 910 nm (MaiTai femtosecond laser, Spectra Physics) was controlled by a glan-thompson prism and half wave plate. […] was collected in orthogonal orientations through two detectors, parallel and perpendicular to excitation polarization, through a polarizing beam splitter that replaced a dichroic mirror in the emission filter cube. The alignment and detector gain and noise were validated each imaging session through measurements of a standard slide. Images were taken with an Olympus 25× XLPlan N objective, NA 1.05, and 3× digital zoom. Confocal imaging was performed with an Olympus XLUMPlanFL N 20× objective, NA 1.00 with chromatic correction, and 3× digital zoom.
Cells were grown on 12 mm round, uncoated, sterilized glass coverslips in 24-well plates for 24 hours. Cells were treated with PARPi and 100 μM TMZ for 1 hour or 10 nM GMX1778 overnight followed by 100 μM TMZ for 1 hour. TMZ was added to stimulate new DNA damage induced condensates in the presence of PARPi or NAD″ depletion. Cells were then transferred to the microscope for anisotropy imaging. Images were analyzed in MATLAB. Nuclei were segmented through intensity thresholding and condensates were segmented through further intensity thresholding with a higher threshold. Values of segmented nuclei and condensates were determined through the regionprops function. Segmentation was corrected through area restrictions to ensure that regions of interest were isolated condensates. The thresholding parameters were consistent throughout experiments. The average intensity and anisotropy of each segmented nuclei or condensate was then calculated. Data were plotted in Prism and analysis performed in Prism or Excel.

[9] = tested on: SKOV3 cells; experiment: γH2AX immunofluorescence in SKOV3 cells (intensity, Imaris Spots, ICS TNoP and DA); type: cell-based
Source text: as §2, §3, §4, §5, §6, §7

[10] = tested on: HT1080 cells; experiment: 53BP1-mApple condensate anisotropy and intensity in HT1080 cells; type: cell-based; conditions: HT1080, increased veliparib concentrations
Method: as §8
Cells were grown on 12 mm round, uncoated, sterilized glass coverslips in 24-well plates for 24 hours. Cells were treated with PARPi and 100 μM TMZ for 1 hour or 10 nM GMX1778 overnight followed by 100 μM TMZ for 1 hour. […] Images were analyzed in MATLAB. […] Values of segmented nuclei and condensates were determined through the regionprops function. […] The average intensity and anisotropy of each segmented nuclei or condensate was then calculated. […]

[11] = biological target: T1, PARP1; conditions: average of previous measurements; cited from earlier work
[12] = tested on: 7 cell lines; experiment: γH2AX immunofluorescence DA and intensity in 7 cell lines; type: cell-based; conditions: all cell lines, 1 μM PARPi overnight
Method: as §1
ICS analysis was performed in MATLAB as previously described (41). Briefly, nuclei were segmented from the DAPI channel with the MATLAB function, imbinarize, converting the greyscale image to a binary dependent on an automatically defined threshold. The MATLAB function, regionprops, was used to identify single nuclei as objects. Each nucleus was used as a mask to perform ICS analysis on the antibody-stained channel, within size limitations for a nucleus (objects >400 and <3000 pixels). To ensure the analysis of antibody stained nuclei, nuclei under an average intensity of 200 au after background subtraction were excluded. The spatial autocorrelation functions were calculated using Fourier methods, then fit to a 2D Gaussian using a nonlinear least-squares algorithm (41). Using the outputs of the fitting, the mean number of independent emitting fluorescent entities per focal spot area and subsequently the DA were determined (59). […]

Row | Compound | HT1080 dose response to veliparib, with vs without PDD00017273 [1] | γH2AX DA induced by 1 μM veliparib or talazoparib, with vs without PDD00017273 ([2]; HT1080, 100 nM PDD00017273 overnight) | ICS DA of γH2AX, dose dependence ([3]; OVCA429) | Imaris Spots analysis of γH2AX, dose dependence ([3]; OVCA429) | γH2AX intensity, dose dependence ([3]; OVCA429, PARP inhibitors) | p.ka_trap: association of PARPi to PARP1, corrected rate [4] | PARP1 trapping [5] | kd (rel PARPi): dissociation constant of PARPi-PARP1 from DNA [6] | Apparent dissociation constant (koff) of PARPi in live cells [7] | 53BP1-mApple condensate anisotropy vs control [8] | ICS TNoP of γH2AX, dose dependence ([9]; SKOV3) | Normalized γH2AX intensity ([9]; SKOV3, 1 μM veliparib, 24 hours) | ICS DA of γH2AX at 100 μM, compared to respective controls ([9]; SKOV3, 100 μM) | Number of γH2AX foci (Imaris Spots) at the highest dose of PARP inhibitor ([9]; SKOV3, highest dose) | Condensate 53BP1-mApple intensity [10] | ka (trap): association constant of PARPi for PARP1 [11] | kd (trap): dissociation of PARPi from PARP1(-DNA) [11] | γH2AX levels (intensity) over control [12] | γH2AX levels measured by intensity ([2]; HT1080, 1 μM PARPi overnight)
1 | PDD00017273 | did not impact HT1080 response to veliparib | did not alter the veliparib or talazoparib induced γH2AX DA; also recorded: no significant differences |  |  |  |  |  |  |  |  |  |  |  |  |  |  |  |  | 
2 | C[C@]1(c2nc3c(C(N)=O)cccc3[nH]2)CCCN1 [veliparib] |  |  | full dose dependent increases in γH2AX clustering | failed to capture the full dose dependent DNA damage | did not show a dose dependence | 0.18 M⁻¹ s⁻¹ | unable to reproduce the trapping observed with just 1 μM talazoparib | 0.00408 s⁻¹ | values similar to those previously determined in purified protein | not | failed to induce any correlative TNOP dose dependence | slight decrease | higher value than 100 μM olaparib | higher | lowered condensate 53BP1-mApple intensity | 1.8e+06 M⁻¹ s⁻¹ | 0.005 s⁻¹ |  | 
3 | Cn1ncnc1[C@H]1c2n[nH]c(=O)c3cc(F)cc(c23)N[C@@H]1c1ccc(F)cc1 [talazoparib] |  |  |  |  |  |  |  |  |  | significantly lower condensate anisotropy compared to control |  |  |  |  |  |  |  | increased γH2AX levels | high levels of γH2AX
